Assay results taken from PubChem BioAssay (NCI).
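Compound exposure: 48 hours, 5 concentrations, 96-well plates. GI50 is the concentration that inhibits growth by half. Definition used: TGI = concentration required for complete inhibition of growth.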

Experiments:
Assay in all cases: DTP human tumour cell line panel, 48 h
HOP-62 NSCLC = test system: HOP-62 NSCLC
OVCAR-5 ovarian = test system: OVCAR-5 ovarian
RXF 393 renal = test system: RXF 393 renal
SN12C renal = test system: SN12C renal
LOX IMVI melanoma = test system: LOX IMVI melanoma
NCI/ADR-RES ovarian = test system: NCI/ADR-RES ovarian
SK-MEL-2 melanoma = test system: SK-MEL-2 melanoma
PC-3 prostate = test system: PC-3 prostate
NCI-H23 lung = test system: NCI-H23 lung
HCT-15 colon = test system: HCT-15 colon

SMILES: O=S(=O)(Nc1ccc(F)c(Cl)c1)c1ccc(-c2cnc(C3CC3)o2)cc1
- GI50 (HOP-62 NSCLC): 0.453 µM
- TGI (HOP-62 NSCLC): 14.4 µM
- GI50 (OVCAR-5 ovarian): 0.798 µM
- TGI (OVCAR-5 ovarian): 13.4 µM
- GI50 (RXF 393 renal): 0.196 µM
- TGI (RXF 393 renal): 1.28 µM
- GI50 (SN12C renal): 0.663 µM
- TGI (SN12C renal): 10.8 µM
- GI50 (LOX IMVI melanoma): 0.401 µM
- TGI (LOX IMVI melanoma): 13.5 µM
- GI50 (NCI/ADR-RES ovarian): 0.252 µM
- TGI (NCI/ADR-RES ovarian): 8.76 µM
- GI50 (SK-MEL-2 melanoma): 0.657 µM
- TGI (SK-MEL-2 melanoma): 14 µM
- GI50 (PC-3 prostate): 0.322 µM
- TGI (PC-3 prostate): 12.3 µM
- GI50 (NCI-H23 lung): 0.593 µM
- TGI (NCI-H23 lung): 11.3 µM
- GI50 (HCT-15 colon): 0.113 µM
- TGI (HCT-15 colon): 11.2 µM

SMILES: COc1cc(/C=C/c2cc(/C=C/c3ccc(O)c(OC)c3)n(C(=O)Nc3ccc(Cl)cc3)n2)ccc1O
- GI50 (HOP-62 NSCLC): 0.537 µM
- TGI (HOP-62 NSCLC): 1.85 µM
- GI50 (OVCAR-5 ovarian): 2.47 µM
- TGI (OVCAR-5 ovarian): 7.52 µM
- GI50 (RXF 393 renal): 0.261 µM
- TGI (RXF 393 renal): 0.789 µM
- GI50 (SN12C renal): 0.455 µM
- TGI (SN12C renal): 21.6 µM
- GI50 (LOX IMVI melanoma): 0.448 µM
- TGI (LOX IMVI melanoma): 2.26 µM
- GI50 (NCI/ADR-RES ovarian): 0.363 µM
- TGI (NCI/ADR-RES ovarian): 3.68 µM
- GI50 (SK-MEL-2 melanoma): 0.403 µM
- TGI (SK-MEL-2 melanoma): 2.01 µM
- GI50 (PC-3 prostate): 0.497 µM
- TGI (PC-3 prostate): 5.78 µM
- GI50 (NCI-H23 lung): 0.494 µM
- TGI (NCI-H23 lung): 2.36 µM
- GI50 (HCT-15 colon): 0.43 µM
- TGI (HCT-15 colon): 11.6 µM

SMILES: CC(=O)c1cc(C(=O)c2ccc3c(c2)Sc2ccccc2N3)c2c(C)cccn12
- GI50 (HOP-62 NSCLC): 0.25 µM
- TGI (HOP-62 NSCLC): 36.9 µM
- GI50 (OVCAR-5 ovarian): 0.63 µM
- TGI (OVCAR-5 ovarian): > 100 µM
- GI50 (RXF 393 renal): 0.252 µM
- TGI (RXF 393 renal): 2.37 µM
- GI50 (SN12C renal): 0.686 µM
- TGI (SN12C renal): > 100 µM
- GI50 (LOX IMVI melanoma): 0.595 µM
- TGI (LOX IMVI melanoma): 4.61 µM
- GI50 (NCI/ADR-RES ovarian): 0.184 µM
- TGI (NCI/ADR-RES ovarian): 18 µM
- GI50 (SK-MEL-2 melanoma): 0.3 µM
- TGI (SK-MEL-2 melanoma): > 66.2 µM
- GI50 (PC-3 prostate): 0.321 µM
- TGI (PC-3 prostate): > 100 µM
- GI50 (NCI-H23 lung): 0.611 µM
- TGI (NCI-H23 lung): > 100 µM
- GI50 (HCT-15 colon): 0.294 µM
- TGI (HCT-15 colon): > 100 µM

SMILES: CNS(=O)(=O)OCC1OC(n2cnc3c(N)ncnc32)C(O)C1O (stereo not given)
- GI50 (HOP-62 NSCLC): > 100 µM
- TGI (HOP-62 NSCLC): > 100 µM
- GI50 (OVCAR-5 ovarian): > 100 µM
- TGI (OVCAR-5 ovarian): > 100 µM
- GI50 (RXF 393 renal): > 100 µM
- TGI (RXF 393 renal): > 100 µM
- GI50 (SN12C renal): > 100 µM
- TGI (SN12C renal): > 100 µM
- GI50 (LOX IMVI melanoma): > 100 µM
- TGI (LOX IMVI melanoma): > 100 µM
- GI50 (NCI/ADR-RES ovarian): > 100 µM
- TGI (NCI/ADR-RES ovarian): > 100 µM
- GI50 (SK-MEL-2 melanoma): > 100 µM
- TGI (SK-MEL-2 melanoma): > 100 µM
- GI50 (PC-3 prostate): > 100 µM
- TGI (PC-3 prostate): > 100 µM
- GI50 (NCI-H23 lung): > 100 µM
- TGI (NCI-H23 lung): > 100 µM
- GI50 (HCT-15 colon): > 100 µM
- TGI (HCT-15 colon): > 100 µM

SMILES: COc1ccc(Nc2nc3cc(N)cc(N)c3nc2-c2ccccc2)cc1OC
- GI50 (HOP-62 NSCLC): 34.8 µM
- TGI (HOP-62 NSCLC): > 100 µM
- GI50 (OVCAR-5 ovarian): 29.7 µM
- TGI (OVCAR-5 ovarian): 72.7 µM
- GI50 (RXF 393 renal): 8.15 µM
- TGI (RXF 393 renal): 49.4 µM
- GI50 (SN12C renal): 16.7 µM
- TGI (SN12C renal): 44.1 µM
- GI50 (LOX IMVI melanoma): 25.8 µM
- TGI (LOX IMVI melanoma): 72.2 µM
- GI50 (NCI/ADR-RES ovarian): 17.2 µM
- TGI (NCI/ADR-RES ovarian): 42.7 µM
- GI50 (SK-MEL-2 melanoma): 27.2 µM
- TGI (SK-MEL-2 melanoma): > 100 µM
- GI50 (PC-3 prostate): 14 µM
- TGI (PC-3 prostate): 36 µM
- GI50 (NCI-H23 lung): 26.3 µM
- TGI (NCI-H23 lung): 80.1 µM
- GI50 (HCT-15 colon): 29 µM
- TGI (HCT-15 colon): > 100 µM

SMILES: COc1ccc(N(/C=C/C(=O)C(F)(F)F)CC(=O)c2ccc(Cl)cc2)cc1
- GI50 (HOP-62 NSCLC): 16.6 µM
- TGI (HOP-62 NSCLC): 35.8 µM
- GI50 (OVCAR-5 ovarian): 18.5 µM
- TGI (OVCAR-5 ovarian): 38.5 µM
- GI50 (RXF 393 renal): 16.3 µM
- TGI (RXF 393 renal): 48.5 µM
- GI50 (SN12C renal): 11.2 µM
- TGI (SN12C renal): 23.3 µM
- GI50 (LOX IMVI melanoma): 14.3 µM
- TGI (LOX IMVI melanoma): 28.8 µM
- GI50 (NCI/ADR-RES ovarian): 15.7 µM
- TGI (NCI/ADR-RES ovarian): 53.1 µM
- GI50 (SK-MEL-2 melanoma): 15.4 µM
- TGI (SK-MEL-2 melanoma): 31.8 µM
- GI50 (PC-3 prostate): 14.2 µM
- TGI (PC-3 prostate): 32.8 µM
- GI50 (NCI-H23 lung): 15.3 µM
- TGI (NCI-H23 lung): 35 µM
- GI50 (HCT-15 colon): 13 µM
- TGI (HCT-15 colon): 26.8 µM

SMILES: Cc1cccc(NC(=O)/C=C/c2ccc([N+](=O)[O-])cc2)c1
- TGI (HOP-62 NSCLC): 33.4 µM
- TGI (OVCAR-5 ovarian): > 57 µM
- TGI (RXF 393 renal): > 52.7 µM
- TGI (SN12C renal): > 58.2 µM
- TGI (LOX IMVI melanoma): > 53 µM
- TGI (NCI/ADR-RES ovarian): > 59.3 µM
- TGI (SK-MEL-2 melanoma): 49.4 µM
- TGI (PC-3 prostate): 28.6 µM
- TGI (NCI-H23 lung): 31.7 µM
- TGI (HCT-15 colon): > 56.7 µM

SMILES: O=C(NCc1ccco1)c1cccc(NC2=C(Cl)C(=O)N(Cc3ccccc3)C2=O)c1
- GI50 (HOP-62 NSCLC): 13.1 µM
- TGI (HOP-62 NSCLC): 28.5 µM
- GI50 (OVCAR-5 ovarian): 22.5 µM
- TGI (OVCAR-5 ovarian): 63.9 µM
- GI50 (RXF 393 renal): 4.22 µM
- TGI (RXF 393 renal): 26.2 µM
- GI50 (SN12C renal): 22.1 µM
- TGI (SN12C renal): > 100 µM
- GI50 (LOX IMVI melanoma): 3.72 µM
- TGI (LOX IMVI melanoma): > 100 µM
- GI50 (NCI/ADR-RES ovarian): 6.53 µM
- TGI (NCI/ADR-RES ovarian): 34.3 µM
- GI50 (SK-MEL-2 melanoma): 3.3 µM
- TGI (SK-MEL-2 melanoma): 20.7 µM
- GI50 (PC-3 prostate): 5.11 µM
- TGI (PC-3 prostate): 19.6 µM
- GI50 (NCI-H23 lung): 14.7 µM
- TGI (NCI-H23 lung): 33.3 µM
- GI50 (HCT-15 colon): 4.16 µM
- TGI (HCT-15 colon): 24 µM

SMILES: COc1cc(-n2ccnc2)cc(OC)c1OC
- GI50 (HOP-62 NSCLC): 31.9 µM
- TGI (HOP-62 NSCLC): > 100 µM
- GI50 (OVCAR-5 ovarian): > 100 µM
- TGI (OVCAR-5 ovarian): > 100 µM
- GI50 (RXF 393 renal): > 100 µM
- TGI (RXF 393 renal): > 100 µM
- GI50 (SN12C renal): 86 µM
- TGI (SN12C renal): > 100 µM
- GI50 (LOX IMVI melanoma): 60.3 µM
- TGI (LOX IMVI melanoma): > 100 µM
- GI50 (NCI/ADR-RES ovarian): 34.2 µM
- TGI (NCI/ADR-RES ovarian): > 100 µM
- GI50 (SK-MEL-2 melanoma): 64.1 µM
- TGI (SK-MEL-2 melanoma): > 100 µM
- GI50 (PC-3 prostate): 50 µM
- TGI (PC-3 prostate): > 100 µM
- GI50 (NCI-H23 lung): > 100 µM
- TGI (NCI-H23 lung): > 100 µM
- GI50 (HCT-15 colon): 40 µM
- TGI (HCT-15 colon): > 100 µM

SMILES: Nc1nc(=O)n([C@@H]2CS[C@H](CO)O2)cc1F
- GI50 (HOP-62 NSCLC): > 100 µM
- TGI (HOP-62 NSCLC): > 100 µM
- GI50 (OVCAR-5 ovarian): > 100 µM
- TGI (OVCAR-5 ovarian): > 100 µM
- GI50 (RXF 393 renal): > 100 µM
- TGI (RXF 393 renal): > 100 µM
- GI50 (SN12C renal): > 100 µM
- TGI (SN12C renal): > 100 µM
- GI50 (LOX IMVI melanoma): > 100 µM
- TGI (LOX IMVI melanoma): > 100 µM
- GI50 (NCI/ADR-RES ovarian): > 100 µM
- TGI (NCI/ADR-RES ovarian): > 100 µM
- GI50 (SK-MEL-2 melanoma): > 100 µM
- TGI (SK-MEL-2 melanoma): > 100 µM
- GI50 (PC-3 prostate): > 100 µM
- TGI (PC-3 prostate): > 100 µM
- GI50 (NCI-H23 lung): > 100 µM
- TGI (NCI-H23 lung): > 100 µM
- GI50 (HCT-15 colon): > 100 µM
- TGI (HCT-15 colon): > 100 µM

SMILES: COc1ccc(C2C=C(c3ccc(Cl)cc3)N=C3SC=C(C)N32)c(Br)c1 (stereo not given)
- GI50 (HOP-62 NSCLC): 3.96 µM
- TGI (HOP-62 NSCLC): 13.4 µM
- GI50 (OVCAR-5 ovarian): 3.12 µM
- TGI (OVCAR-5 ovarian): 11.2 µM
- GI50 (RXF 393 renal): 2.39 µM
- TGI (RXF 393 renal): 9.59 µM
- GI50 (SN12C renal): 3.23 µM
- TGI (SN12C renal): 15.1 µM
- GI50 (LOX IMVI melanoma): 2.21 µM
- TGI (LOX IMVI melanoma): 7.56 µM
- GI50 (NCI/ADR-RES ovarian): 4.22 µM
- TGI (NCI/ADR-RES ovarian): > 100 µM
- GI50 (SK-MEL-2 melanoma): 4.79 µM
- TGI (SK-MEL-2 melanoma): 18.1 µM
- GI50 (PC-3 prostate): 4.67 µM
- TGI (PC-3 prostate): 43.3 µM
- GI50 (NCI-H23 lung): 4.43 µM
- TGI (NCI-H23 lung): 28.4 µM
- GI50 (HCT-15 colon): 2.42 µM
- TGI (HCT-15 colon): 12.2 µM
